Read-outs that look alike come from different tables or passages of the source.

The target of one assay is T1, Proteinase K (Parengyodontium album, UniProt P06873).
T1 construct: gene PROK
Description: protease activity assay (same assay as for StmPr1). The class given is biochemical.

The target of another assay is T2, StmPr1 (Stenotrophomonas maltophilia, UniProt Q93IQ4).
T2 construct: StmPr1 36 kDa (self-digested from 47 kDa, C-terminal extension cleaved)
Description: X-ray crystal structure ([…] Å) plus protease activity assay. Type of assay: biochemical.

T2 sequence (Q93IQ4 entry or part of it): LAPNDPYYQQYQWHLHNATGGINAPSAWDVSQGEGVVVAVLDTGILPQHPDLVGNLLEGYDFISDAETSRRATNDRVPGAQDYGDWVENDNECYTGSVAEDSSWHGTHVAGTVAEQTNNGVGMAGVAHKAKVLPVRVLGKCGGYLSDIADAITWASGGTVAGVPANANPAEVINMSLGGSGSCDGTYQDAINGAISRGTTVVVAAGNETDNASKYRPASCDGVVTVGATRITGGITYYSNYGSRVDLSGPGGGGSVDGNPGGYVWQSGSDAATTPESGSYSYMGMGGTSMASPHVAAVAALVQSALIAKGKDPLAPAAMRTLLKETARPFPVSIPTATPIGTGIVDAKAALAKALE
T1 sequence (P06873 106-384): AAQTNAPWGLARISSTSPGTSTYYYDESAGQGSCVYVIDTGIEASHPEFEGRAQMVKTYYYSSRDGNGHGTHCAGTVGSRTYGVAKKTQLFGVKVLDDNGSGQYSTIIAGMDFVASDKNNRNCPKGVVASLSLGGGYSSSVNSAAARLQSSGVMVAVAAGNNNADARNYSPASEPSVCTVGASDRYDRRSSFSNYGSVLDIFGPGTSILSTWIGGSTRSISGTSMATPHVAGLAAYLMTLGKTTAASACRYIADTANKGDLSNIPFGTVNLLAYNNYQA

The IC50 is the concentration that gives 50% inhibition. As for `CC(C)C[C@H](NC(=O)[C@H](Cc1ccccc1)NC(=O)c1cnccn1)B(O)O` [Bortezomib], the IC50 against Proteinase K turned out to be 1450 nM; at StmPr1 (read-out: IC50) it was 1.97 µM.

Take `O=S(=O)(F)Cc1ccccc1` [PMSF]: the IC50 on StmPr1 was determined as 125 µM.

Source of the values: publication PMC12181431, “Unveiling the structure, function and dynamics of StmPr1 in Stenotrophomonas maltophilia virulence” (Scientific Reports, 2025).
